Laboratory results taken from publication PMC11855478, “Bicyclic N,S-Acetals Containing Fused Cysteine-Amide System as New Heterocyclic Class Targeting Human Farnesyltransferase (FTase-h)” (International Journal of Molecular Sciences, 2025).

Key:
[1] = test system: HOP-62 (Non-Small Cell Lung Cancer); assay: NCI one dose, HOP-62; assay type: cell-based, human; conditions: HOP-62, 1.00E-5 Molar one dose
In short: (§1)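 Testing ran at NCI on sixty human cancer lines. Exposure lasted 48 h. Viability was determined colorimetrically with sulforhodamine B.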

OVCAR-8 (Ovarian Cancer) = assay: NCI one dose, OVCAR-8; assay type: cell-based, human; conditions: OVCAR-8, 1.00E-5 Molar one dose
In short: (§2)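 Compounds were screened in the NCI 60-cell-line human cancer panel with a 48 h exposure; cytotoxicity was read by sulforhodamine B staining.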

HCT-15 (Colon Cancer) = assay: NCI one dose, HCT-15; assay type: cell-based, human; conditions: HCT-15, 1.00E-5 Molar one dose
In short: as §1

[2] = test system: EKVX (Non-Small Cell Lung Cancer); assay: NCI one dose, EKVX; assay type: cell-based, human; conditions: 1.00E-5 Molar one dose
In short: as §1

SF-268 (CNS Cancer) = assay: NCI one dose, SF-268; assay type: cell-based, human; conditions: SF-268, 1.00E-5 Molar one dose
In short: as §1

[3] = test system: NCI-H460 (Non-Small Cell Lung Cancer); assay: NCI one dose, NCI-H460; assay type: cell-based, human; conditions: NCI-H460, 1.00E-5 Molar one dose
Description: (§3) 3.4. Cell Proliferation Assay
(§4) Selected compounds were tested on a panel of 60 human cancer cell lines at the National Cancer Institute (NCI), Germantown, MD, USA. The cytotoxicity studies were conducted using a 48 h exposure protocol using the sulfo-rhodamine B assay.

CAKI-1 (Renal Cancer) = assay: NCI one dose, CAKI-1; assay type: cell-based, human; conditions: CAKI-1, 1.00E-5 Molar one dose
In short: as §1

[4] = test system: MDA-MB-231/ATCC (Breast Cancer); assay: NCI one dose, MDA-MB-231/ATCC; assay type: cell-based, human; conditions: 1.00E-5 Molar one dose
In short: as §1

U251 (CNS Cancer) = assay: NCI one dose, U251; assay type: cell-based, human; conditions: U251, 1.00E-5 Molar one dose
In short: as §1

LOX IMVI (Melanoma) = assay: NCI one dose, LOX IMVI; assay type: cell-based, human; conditions: 1.00E-5 Molar one dose
In short: as §1

UACC-257 melanoma cells = assay: NCI one dose, UACC-257; assay type: cell-based, human; conditions: UACC-257, 1.00E-5 Molar one dose
In short: as §1

OVCAR-4 (Ovarian Cancer) = assay: NCI one dose, OVCAR-4; assay type: cell-based, human; conditions: OVCAR-4, 1.00E-5 Molar one dose
In short: as §1

UACC-62 (Melanoma) = assay: NCI one dose, UACC-62; assay type: cell-based, human; conditions: UACC-62, 1.00E-5 Molar one dose
In short: as §1

SR (Leukemia) = assay: NCI one dose, SR; assay type: cell-based, human; conditions: 1.00E-5 Molar one dose
Description: as §3, §4

T-47D (Breast Cancer) = assay: NCI one dose, T-47D; assay type: cell-based, human; conditions: 1.00E-5 Molar one dose
Description: as §3, §4

SF-539 (CNS Cancer) = assay: NCI one dose, SF-539; assay type: cell-based, human; conditions: SF-539, 1.00E-5 Molar one dose
In short: as §1

SNB-75 (CNS Cancer) = assay: NCI one dose, SNB-75; assay type: cell-based, human; conditions: SNB-75, 1.00E-5 Molar one dose
In short: as §1

HS 578T (Breast Cancer) = assay: NCI one dose, HS 578T; assay type: cell-based, human; conditions: 1.00E-5 Molar one dose
In short: as §1

BT-549 (Breast Cancer) = assay: NCI one dose, BT-549; assay type: cell-based, human; conditions: BT-549, 1.00E-5 Molar one dose
In short: as §1

RXF 393 (Renal Cancer) = assay: NCI one dose, RXF 393; assay type: cell-based, human; conditions: RXF 393, 1.00E-5 Molar one dose
In short: as §1

SF-295 (CNS Cancer) = assay: NCI one dose, SF-295; assay type: cell-based, human; conditions: SF-295, 1.00E-5 Molar one dose
In short: as §2

SNB-19 (CNS Cancer) = assay: NCI one dose, SNB-19; assay type: cell-based, human; conditions: SNB-19, 1.00E-5 Molar one dose
In short: as §1

MCF7 (Breast Cancer) = assay: NCI one dose, MCF7; assay type: cell-based, human; conditions: MCF7, 1.00E-5 Molar one dose
In short: as §1

SK-OV-3 (Ovarian Cancer) = assay: NCI one dose, SK-OV-3; assay type: cell-based, human; conditions: SK-OV-3, 1.00E-5 Molar one dose
In short: as §1

[5] = test system: NCI-H322M (Non-Small Cell Lung Cancer); assay: NCI one dose, NCI-H322M; assay type: cell-based, human; conditions: 1.00E-5 Molar one dose
In short: as §1

MOLT-4 (Leukemia) = assay: NCI one dose, MOLT-4; assay type: cell-based, human; conditions: MOLT-4, 1.00E-5 Molar one dose
In short: as §1

MDA-MB-435 (Melanoma) = assay: NCI one dose, MDA-MB-435; assay type: cell-based, human; conditions: MDA-MB-435, 1.00E-5 Molar one dose
In short: as §2

[6] = test system: panel of 60 human cancer cell lines; assay: NCI 60 cell panel one dose screen (whole panel); assay type: cell-based; design: Delta (One Dose Mean Graph): unit not given here; conditions: 1.00E-5 Molar one dose; for Range (One Dose Mean Graph): in % (unit assumed); for Mean Growth Percent: mean over tested cell lines
In short: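 Single-dose screen at 10 µM across the NCI 60 human cancer cell line panel; 48 h compound exposure with growth measured by sulforhodamine B assay.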

[7] = test system: MDA-MB-468 breast cancer cells; assay: NCI one dose, MDA-MB-468; assay type: cell-based, human; conditions: MDA-MB-468, 1.00E-5 Molar one dose
In short: as §1

SK-MEL-5 (Melanoma) = assay: NCI one dose, SK-MEL-5; assay type: cell-based, human; conditions: SK-MEL-5, 1.00E-5 Molar one dose
In short: as §1

TK-10 (Renal Cancer) = assay: NCI one dose, TK-10; assay type: cell-based, human; conditions: TK-10, 1.00E-5 Molar one dose
In short: as §1

Compound	Growth Percent [1] [%]	Growth Percent (OVCAR-8 (Ovarian Cancer)) [%]	Growth Percent (HCT-15 (Colon Cancer)) [%]	Growth Percent [2] [%]	Growth Percent (SF-268 (CNS Cancer)) [%]	Growth Percent [3] [%]	Growth Percent (CAKI-1 (Renal Cancer)) [%]	Growth Percent [4] [%]	Growth Percent (U251 (CNS Cancer)) [%]	Growth Percent (LOX IMVI (Melanoma)) [%]	Growth Percent (UACC-257 melanoma cells) [%]	Growth Percent (OVCAR-4 (Ovarian Cancer)) [%]	Growth Percent (UACC-62 (Melanoma)) [%]	Growth Percent (SR (Leukemia)) [%]	Growth Percent (T-47D (Breast Cancer)) [%]	Growth Percent (SF-539 (CNS Cancer)) [%]	Growth Percent (SNB-75 (CNS Cancer)) [%]	Growth Percent (HS 578T (Breast Cancer)) [%]	Growth Percent (BT-549 (Breast Cancer)) [%]	Growth Percent (RXF 393 (Renal Cancer)) [%]	also measured
COc1cccc(CNC(=O)[C@@H]2CS[C@@]3(C)c4ccccc4C(=O)N23)c1 [4bE]	98.17	90.08	102.87	112.43	106.18	104.83	85.65	105.57	100.00	101.37	81.73	94.52	91.91	81.22	96.67	104.59	98.09	95.18	110.64	107.08	Growth Percent (SF-295 (CNS Cancer)): 97.61%; Growth Percent (SNB-19 (CNS Cancer)): 102.99%; Growth Percent (MCF7 (Breast Cancer)): 89.13%; Growth Percent (SK-OV-3 (Ovarian Cancer)): 101.46%; Growth Percent [5]: 102.58%; Growth Percent (MOLT-4 (Leukemia)): 85.50%; Growth Percent (MDA-MB-435 (Melanoma)): 98.34%; Delta (One Dose Mean Graph) [6]: 31.41; Range (One Dose Mean Graph) [6]: 48.09; Mean Growth Percent [6]: 98.86%; Growth Percent [7]: 93.38%; Growth Percent (SK-MEL-5 (Melanoma)): 101.12%; Growth Percent (TK-10 (Renal Cancer)): 95.45%
C[C@@]12SC[C@@H](C(=O)NCc3ccccc3C(F)(F)F)N1C(=O)c1ccccc12 [4bC]	97.48	92.54	100.40	104.01	103.76	105.02	84.55	100.45	91.69	102.39	73.01	93.35	87.36	72.94	86.40	100.26	96.49	94.37	104.97	101.10	Growth Percent (SF-295 (CNS Cancer)): 93.93%; Growth Percent (SNB-19 (CNS Cancer)): 103.86%; Growth Percent (MCF7 (Breast Cancer)): 90.83%; Growth Percent (SK-OV-3 (Ovarian Cancer)): 100.95%; Growth Percent [5]: 101.48%; Growth Percent (MOLT-4 (Leukemia)): 74.60%; Growth Percent (MDA-MB-435 (Melanoma)): 98.98%; Delta (One Dose Mean Graph) [6]: 25.73; Range (One Dose Mean Graph) [6]: 45.90; Mean Growth Percent [6]: 95.29%; Growth Percent [7]: 101.77%; Growth Percent (SK-MEL-5 (Melanoma)): 100.19%; Growth Percent (TK-10 (Renal Cancer)): 92.04%
COc1cc(CNC(=O)[C@@H]2CS[C@@]3(C)c4ccccc4C(=O)N23)cc(OC)c1OC [4bJ]	90.09	92.35	105.84	108.30	101.09	105.78	89.81	98.30	82.69	105.04	73.76	97.02	92.46	77.35	87.15	98.24	97.50	94.07	107.75	98.72	Growth Percent (SF-295 (CNS Cancer)): 103.92%; Growth Percent (SNB-19 (CNS Cancer)): 93.01%; Growth Percent (MCF7 (Breast Cancer)): 93.75%; Growth Percent (SK-OV-3 (Ovarian Cancer)): 103.62%; Growth Percent [5]: 99.71%; Growth Percent (MOLT-4 (Leukemia)): 81.24%; Growth Percent (MDA-MB-435 (Melanoma)): 104.68%; Delta (One Dose Mean Graph) [6]: 27.08; Range (One Dose Mean Graph) [6]: 43.64; Mean Growth Percent [6]: 95.84%; Growth Percent [7]: 89.65%; Growth Percent (SK-MEL-5 (Melanoma)): 102.14%; Growth Percent (TK-10 (Renal Cancer)): 102.44%
